{"source": "ChEMBL document CHEMBL4616634", "about": "“4β-Hydroxywithanolide E from Goldenberry (Whole Fruits of Physalis peruviana L.) as a Promising Agent against Chronic Obstructive Pulmonary Disease” (J Nat Prod, 2020)", "key": {"[1]": {"biological_target": "T1, Nuclear factor erythroid 2-related factor 2 (Homo sapiens) (UniProt Q16236)", "T1 sequence (whole entry)": "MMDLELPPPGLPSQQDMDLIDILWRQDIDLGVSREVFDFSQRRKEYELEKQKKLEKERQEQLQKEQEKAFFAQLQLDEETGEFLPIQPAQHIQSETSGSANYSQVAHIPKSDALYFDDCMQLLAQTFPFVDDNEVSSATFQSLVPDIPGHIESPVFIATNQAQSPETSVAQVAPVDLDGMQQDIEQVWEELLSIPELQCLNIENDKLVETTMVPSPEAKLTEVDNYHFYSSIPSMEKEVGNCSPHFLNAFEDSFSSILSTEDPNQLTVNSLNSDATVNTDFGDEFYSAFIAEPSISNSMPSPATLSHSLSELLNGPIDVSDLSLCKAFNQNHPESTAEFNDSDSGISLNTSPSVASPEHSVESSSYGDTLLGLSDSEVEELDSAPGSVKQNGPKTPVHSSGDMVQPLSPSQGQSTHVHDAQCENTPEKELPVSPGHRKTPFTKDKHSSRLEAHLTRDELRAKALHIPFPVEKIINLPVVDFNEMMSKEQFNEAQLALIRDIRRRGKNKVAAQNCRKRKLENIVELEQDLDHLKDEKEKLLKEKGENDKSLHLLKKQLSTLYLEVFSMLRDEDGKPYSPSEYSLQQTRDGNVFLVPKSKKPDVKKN", "test": "Activation of Nrf2 in human BEAS2B cells assessed as increase in Keap1 mRNA expression at 0.5 to 2 uM incubated for 24 hrs by qRT-PCR analysis", "format": "cell-based"}, "[2]": {"biological_target": "T1, Nuclear factor erythroid 2-related factor 2 (Homo sapiens)", "test": "Activation of Nrf2 in human BEAS2B cells assessed as increase in Nrf2 protein expression at 1 uM incubated for 24 hrs by immunoblot analysis", "format": "cell-based"}, "[3]": {"biological_target": "T1, Nuclear factor erythroid 2-related factor 2 (Homo sapiens)", "test": "Activation of Nrf2 in human MDA-MB-231 cells assessed as increase in ARE luciferase activity at > 4 uM incubated for 16 hrs by luciferase reporter gene assay", "format": "cell-based"}, "[4]": {"tested_on": "Mus musculus", "test": "Antioxidant Activity in C57BL/6 mouse model of CS-induced pulmonary injury assessed as increase in SOD level in lungs at 2 to 4 mg/kg, ip for 5 days", "format": "functional, organism-based"}, "[5]": {"biological_target": "T1, Nuclear factor erythroid 2-related factor 2 (Homo sapiens)", "test": "Activation of Nrf2 in human BEAS2B cells assessed as increase in Nrf2 accumulation in nucleus at 1 uM incubated for 8 hrs by immunoblot analysis", "format": "cell-based"}, "[6]": {"biological_target": "T2, Nuclear factor erythroid 2-related factor 2 (Mus musculus) (UniProt Q60795)", "T2 sequence (whole entry)": "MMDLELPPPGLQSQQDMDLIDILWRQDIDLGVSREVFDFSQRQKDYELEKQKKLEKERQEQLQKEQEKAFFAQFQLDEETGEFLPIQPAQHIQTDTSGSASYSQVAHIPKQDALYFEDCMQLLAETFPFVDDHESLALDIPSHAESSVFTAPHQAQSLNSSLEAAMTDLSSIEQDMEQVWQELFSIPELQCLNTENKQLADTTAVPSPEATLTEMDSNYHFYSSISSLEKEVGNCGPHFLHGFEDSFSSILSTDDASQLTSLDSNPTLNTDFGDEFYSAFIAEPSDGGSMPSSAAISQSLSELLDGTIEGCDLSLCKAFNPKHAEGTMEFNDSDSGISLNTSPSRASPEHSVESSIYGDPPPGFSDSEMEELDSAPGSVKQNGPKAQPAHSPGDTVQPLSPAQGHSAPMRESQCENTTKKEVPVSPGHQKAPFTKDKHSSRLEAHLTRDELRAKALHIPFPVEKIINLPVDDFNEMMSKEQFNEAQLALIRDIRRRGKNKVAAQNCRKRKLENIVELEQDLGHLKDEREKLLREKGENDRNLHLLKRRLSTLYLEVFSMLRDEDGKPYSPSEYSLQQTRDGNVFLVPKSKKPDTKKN", "test": "Activation of Nrf2 in mouse Hepa1c1c7 cells assessed as increase in quinone reductase activity at 3.12 uM incubated for 24 hrs by MTT based assay", "format": "cell-based"}, "[7]": {"biological_target": "T1, Nuclear factor erythroid 2-related factor 2 (Homo sapiens)", "test": "Activation of Nrf2 in human BEAS2B cells assessed as increase in Keap1 protein expression at 5 uM incubated for 24 hrs by immunoblot analysis", "format": "cell-based"}, "[8]": {"tested_on": "RAW264.7", "test": "Inhibition of LPS-induced IL-1beta mRNA expression in mouse RAW264.7 cells at 0.5 to 4 uM preincubated for 1 hr followed by LPS-stimulation and measured after 6 hrs by qRT-PCR analysis", "format": "functional, cell-based"}, "[9]": {"tested_on": "RAW264.7", "test": "Inhibition of LPS-induced COX2 mRNA expression in mouse RAW264.7 cells at 0.5 to 4 uM preincubated for 1 hr followed by LPS-stimulation and measured after 6 hrs by qRT-PCR analysis", "format": "functional, cell-based"}, "[10]": {"tested_on": "RAW264.7", "test": "Inhibition of LPS-induced TNFalpha mRNA expression in mouse RAW264.7 cells at 0.5 to 4 uM preincubated for 1 hr followed by LPS-stimulation and measured after 6 hrs by qRT-PCR analysis", "format": "functional, cell-based"}, "[11]": {"species_on_record": "Danio rerio", "test": "Inhibition of LPS-induced ROS generation in AB zebra fish oxidative damage model incubated for 24 hrs by DCFH-DA staining based fluorescence assay", "format": "functional, organism-based"}, "[12]": {"tested_on": "RAW264.7", "test": "Inhibition of LPS-induced MMP-9 mRNA expression in mouse RAW264.7 cells at 0.5 to 4 uM preincubated for 1 hr followed by LPS-stimulation and measured after 6 hrs by qRT-PCR analysis", "format": "functional, cell-based"}, "[13]": {"tested_on": "Mus musculus", "test": "Antiinflammatory activity in C57BL/6 mouse model of CS-induced pulmonary injury assessed as reduction in 8-oxo-dG in lungs at 2 to 4 mg/kg, ip for 5 days by ELISA", "format": "functional, organism-based"}, "[14]": {"tested_on": "RAW264.7", "test": "Cytotoxicity against mouse RAW264.7 cells assessed as reduction in cell viability < 6.25 uM after 24 hrs by MTT assay", "format": "cell-based", "conditions": "raw264.7, 24 h"}, "[15]": {"biological_target": "T1, Nuclear factor erythroid 2-related factor 2 (Homo sapiens)", "test": "Stabilization of Nrf2 in human BEAS2B cells assessed as protein half life at 1 uM after 8 hrs in presence of CHX by immunoblot analysis (reference value: 12.9 min)", "format": "cell-based"}, "[16]": {"biological_target": "T1, Nuclear factor erythroid 2-related factor 2 (Homo sapiens)", "test": "Activation of Nrf2 in human BEAS2B cells assessed as increase in KEAP1 protein expression at 0.25 to 2 uM incubated for 12 hrs by immunoblot analysis", "format": "cell-based"}, "[17]": {"tested_on": "RAW264.7", "test": "Inhibition of LPS-induced TNFalpha protein expression in mouse RAW264.7 cells at 0.5 to 4 uM preincubated for 1 hr followed by LPS-stimulation and measured after 16 hrs by immunoblot analysis", "format": "functional, cell-based"}, "[18]": {"biological_target": "T1, Nuclear factor erythroid 2-related factor 2 (Homo sapiens)", "test": "Activation of Nrf2 in human MDA-MB-231 cells assessed as increase in ARE luciferase activity at 2 uM incubated for 16 hrs by luciferase reporter gene assay", "format": "cell-based"}, "[19]": {"tested_on": "Mus musculus", "test": "Antiinflammatory activity in C57BL/6 mouse model of CS-induced pulmonary injury assessed as decrease in NFkappaB p65 protein expression in lungs at 2 to 4 mg/kg, ip for 5 days by immunoblot analysis", "format": "functional, organism-based"}, "[20]": {"tested_on": "Mus musculus", "test": "Antiinflammatory activity in C57BL/6 mouse model of CS-induced pulmonary injury assessed as increase in GCLM protein expression in lungs at 2 to 4 mg/kg, ip for 5 days by immunoblot analysis", "format": "functional, organism-based"}, "[21]": {"tested_on": "Mus musculus", "test": "Antiinflammatory activity in C57BL/6 mouse model of CS-induced pulmonary injury assessed as reduction in thickening of the alveolar septa in lungs at 2 to 4 mg/kg, ip for 5 days by hematoxylin and eosin staining based fluorescence microscopic analysis", "format": "functional, organism-based"}}, "note": "Calls of active or inactive are those of the source. The calls are words filed in the database; no cut-off is given here."}
{"smiles": "CC1=C(C)C(=O)O[C@H]([C@](C)(O)[C@]2(O)CC[C@@]3(O)[C@@H]4C[C@H]5O[C@]56[C@@H](O)C=CC(=O)[C@]6(C)[C@H]4CC[C@]23C)C1", "values": [{"measurement": "Activity", "setting": "[1]", "value": "inactive"}, {"measurement": "Activity", "setting": "[2]", "value": "inactive"}, {"measurement": "Activity", "setting": "[3]", "value": "inactive"}, {"measurement": "Activity", "setting": "[4]", "value": "Active"}, {"measurement": "Activity", "setting": "[5]", "value": "Active"}, {"measurement": "fold change (FC)", "setting": "[6]", "value": 2.58}, {"measurement": "Activity", "setting": "[7]", "value": "inactive"}, {"measurement": "inhibition", "setting": "[8]", "value": "Active"}, {"measurement": "inhibition", "setting": "[9]", "value": "Active"}, {"measurement": "inhibition", "setting": "[10]", "value": "Active"}, {"measurement": "inhibition", "setting": "[11]", "value": "Dose-dependent effect"}, {"measurement": "inhibition", "setting": "[12]", "value": "Active"}, {"measurement": "Activity", "setting": "[13]", "value": "Active"}, {"measurement": "Activity", "setting": "[14]", "value": "Non-Toxic"}, {"measurement": "T1/2", "setting": "[15]", "value": 34.3, "unit": "min"}, {"measurement": "Activity", "setting": "[16]", "value": "inactive"}, {"measurement": "inhibition", "setting": "[17]", "value": "Active"}, {"measurement": "fold change (FC)", "setting": "[18]", "value": 8.5}, {"measurement": "Activity", "setting": "[19]", "value": "Active"}, {"measurement": "Activity", "setting": "[20]", "value": "Active"}, {"measurement": "Activity", "setting": "[21]", "value": "Active"}]}
